Test results taken from patent US7811778B2, “Methods of screening for gastrointestinal cancer” (Vanderbilt University, priority 2006, dated 2010).

What was measured:
[1] = system: fundic mucosa; experiment: Immunohistochemistry / immunofluorescence of stomachs of DMP-777-treated mice; type: in vivo, gastrin-deficient mice
Source text: Excised stomachs from Gastrin-deficient mice treated with DMP-777 or untreated controls embedded in paraffin were used for immunohistochemistry analysis Stomachs from C57BL/6 wild-type mice and sections from H. felis-infected C57BL/6 mice (infected for 6 months) were also examined with staining as a comparison. For immunohistochemistry, except for Mist1 staining, deparaffinized sections were pretreated with antigen retrieval using Target Retrieval solution (DakoCytomation, Glostrup, Denmark) at 120° C. for 15 minutes, followed by immediate cooling using iced water. For immunohistochemistry of Mist1, Trilogy antigen retrieval solution (Cell Marque, Austin. Tex.) was used during the antigen retrieval procedure. Sections were treated with 2% blocking serum and then incubated with the primary antibody overnight at 4° C. Immunostaining was performed with the following primary antibodies; murine monoclonal immunoglobulin M (IgM) anti-trefoil factor family 2 (TFF2, a gift from Sir Nicholas Wright, Cancer Research UK; 1:1000); rabbit anti-Mist1 (1:2000); murine monoclonal anti-H/K-ATPase (a gift from Dr. Adam J. Smolka, Medical University of South Carolina; 1:100,000); rabbit anti-HE4 (1:2000); rabbit anti-intrinsic factor (a gift from Dr. David Alpers, Washington University, St. Louis; 1:2000);, goat anti-Intrinsic factor (1:2000): rabbit anti-MCM3 (1:2000); rat monoclonal anti-Ki67 (TEC-3, DakoCytomation; 1:200).
For immunofluorescence analysis, Cy3-goat anti-mouse IgM antibody, Cy5-goat anti-mouse IgG antibody (Jackson ImmunoResearch, West Grove, Pa.) and Alexa488 goat anti-rabbit IgG (Invitrogen, Carlsbad, Calif.) were used. PROLONG® Gold Antifade Reagent with DAPI (Invitrogen) was used for nuclear counterstain and mounting medium.
For immunohistochemistry with detection with diaminobenzidine, the sections were incubated with biotinylated secondary antibody followed by horseradish peroxidase-conjugated streptavidin. Chromogen was developed with diaminobenzidine (Biogenex, San Ramon, Calif.). For immunohistochemistry with alkaline-phosphatase detection, the sections were incubated with biotinylated secondary antibody followed by alkaline-phosphatase-conjugated avidin-biotin complex. Chromogen was developed with VECTOR® Red Substrate (Vector Laboratories, Burlingame, Calif.). All sections were counterstained with Gill's hematoxylin.
Sections were viewed and photographed on Zeiss AXIOPHOT® microscope equipped with an AXIOVISION® digital imaging system (Zeiss) or FLUOVIEW® FV1000 confocal microscope system (Olympus).

[2] = system: emerging SPEM cells; experiment: Quantitative PCR of transcripts in microdissected cells during emergence of SPEM; type: in vivo, gastrin-deficient mice
Description: Total RNA isolated from laser-capture microdissected cell collections from the stomachs of normal and DMP-777 1-day-treated and DMP-777 3-day—treated gastrin-deficient mice was analyzed by quantitative PCR assays. Reverse transcription from each total RNA sample was performed using random primers and Quantiscript Reverse transcriptase (Qiagen. Valencia, Calif.), for 30 minutes at 42° C. Quantitative real-time PCR was performed with a 3-step method using the Bio-Rad iCycler iQ real-time PCR detection system (Bio-Rad Laboratories, Hercules, Calif.). Each reaction was carried out in a 50 μL mixture consisting of QuantiTect SYBR Green PCO Master Mix (Qiagen), and 1 μL of template cDNA. The PCR conditions for quantitative real-time PCR were; 95° C. for 10 minutes 45 cycles of 94° C. for 15 seconds, 60° C. for 30 seconds, and 72° C. for 30 seconds. Quantitation of cDNA template in each sample was determined using the comparative threshold cycle (CT) method using GAPDH as a control, as described previously (Nomura S, Baxter S, Yamaguchi T, Leys C, Vartapetian A B, Fox J G, Lee J R, Wang T C, Goldenring J R. Relationship of spasmolytic polypeptide expressing metaplasia (SPEM) to pre-neoplasia in H. felis-infected mice. Gastroenterology 2004; 127:582-594). Statistical comparisons of the mean ΔΔCT between groups were determined using the Mann-Whitney U Test
However, by quantitative PCR assays, TFF2 levels were elevated greater than 7-fold in emerging SPEM from DMP-777 treated animals (FIG. 5).

[3] = microdissected cells, DMP-777 1 or 3 days vs untreated chief cells

## CCC[C@@H](NC(=O)N1C(=O)C(CC)(CC)[C@@H]1Oc1ccc(C(=O)N2CCN(C)CC2)cc1)c1ccc2c(c1)OCO2 [DMP-777]
[1]; 1 to 14 days of treatment, *p<0.05 at 7 days
  quantification of Ki-67 staining (FIG. 6F): smaller increase, which was only significant at 7 days of treatment
[1]; DMP-777 treated gastrin-deficient mice
  HE4 expression in SPEM cells at the bases of fundic glands (immunostaining): prominent up-regulation
[1]; after only one day of DMP-777 treatment
  TACC3 expression in cells at the bases of gastric glands: TACC3 expression was evident
[1]; after only one day of treatment
  HE4 immunoreactivity in SPEM: markedly increased
[1]; days 3-14 of treatment, **p<0.01, ***p<0.001
  quantification of MCM3 staining (FIG. 6F): significant increase
[1]; gastrin deficient mice treated for 3 days with DMP-777
  TFF2 and intrinsic factor staining in cells at the bases of fundic glands: SPEM cells expressing two separate populations of TFF2 and intrinsic factor staining granules were present
[1]; gastrin-deficient mice after DMP-777 treatment
  Ki67 positive cell numbers: only a small increase
[1]; gastrin-deficient mice treated with DMP-777 for three days
  number of Mist1 immunoreactive cells at the bases of glands: decreased
[1]; gastrin-deficient mice, after 1 day of DMP-777, remained elevated through 14 days
  number of MCM3 positive cells: increased
[1]; treatment with DMP-777 for 3 days
  TACC3 expression in SPEM cells at the bases of fundic glands: strongly up-regulated
[2]; emerging SPEM from DMP-777 treated animals vs untreated chief cells
  TFF2 levels by quantitative PCR: greater than 7 fold
[2]; [3]
  G1/S associated transcripts MCM3, MCM5, MCM7 and ATF3 by quantitative PCR: up-regulation of G1/associated transcripts was confirmed
  ST3Gal6 transcript by quantitative PCR: down-regulation ST3Gal6 was confirmed
  transcripts for putative soluble mediators HE4 and IL1RN by quantitative PCR: up-regulation of transcripts for putative soluble mediators was also confirmed
